Drawing on BindingDB's records for doi:10.1021/jm100555f (Harvard Medical School, 2010), this text covers EC50 for 18 compounds.

Each structure is given as a SMILES string. pEC50: −log10 of the molar value. Bounds are passed on as bounds.

The nature of this experiment: Inhibition of Bcr-Abl in mouse BA/F3 cells.
Take `FC(F)(F)Oc1ccc(Nc2cc(NCCCN3CCOCC3)ncn2)cc1` [N4-(3-morpholinopropyl)-N6-(4-(trifluoromethoxy)phenyl)pyrimidine-4,6-diamine]: the pEC50 is 5.35.
The compound `COc1ccc(Nc2cc(NCCN3CCOCC3)ncn2)cc1` [N4-(4-methoxyphenyl)-N6-(2-morpholinoethyl)pyrimidine-4,6-diamine] showed a pEC50 below 5.00.
With `CN(c1ccc(OC(F)(F)F)cc1)c1cc(NCCN2CCOCC2)ncn1` [N4-methyl-N6-(2-morpholinoethyl)-N4-(4-(trifluoromethoxy)phenyl)pyrimidine-4,6-diamine], the pEC50 was below 5.00.
For the compound `O=C(NCCO)c1cc2c(Nc3ccc(OC(F)(F)F)cc3)ncnc2s1` [N-(2-Hydroxyethyl)-4-(4-(trifluoromethoxy)phenylamino)thieno[2,3-d]pyrimidine-6-carboxamide], the pEC50 is below 5.00.
The compound `O=C(NCCN1CCOCC1)c1cccc(-c2cc(Nc3ccc(OC(F)(F)F)cc3)ncn2)c1` [N-(2-morpholinoethyl)-3-(6-(4-(trifluoromethoxy)phenylamino)pyrimidin-4-yl)benzamide] gave a pEC50 of 6.38.
The compound `FC(F)(F)Oc1ccc(Oc2cc(NCCN3CCOCC3)ncn2)cc1` [N-(2-morpholinoethyl)-6-(4-(trifluoromethoxy)phenoxy)pyrimidin-4-amine] gave a pEC50 below 5.00.
Take `FC(F)(F)Oc1ccc(-c2cc(NCCN3CCOCC3)ncn2)cc1` [N-(2-morpholinoethyl)-6-(4-(trifluoromethoxy)phenyl)pyrimidin-4-amine]: the pEC50 is below 5.00.
Compound `CS(=O)(=O)Nc1ccc(-c2cc(Nc3ccc(OC(F)(F)F)cc3)ncn2)cc1` [N-(4-(6-(4-(trifluoromethoxy)phenylamino)pyrimidin-4-yl)phenyl)methanesulfonamide] showed a pEC50 of 7.40.
In the case of `FC(F)(F)Oc1ccc(Nc2ncnc3[nH]ccc23)cc1` [N-(4-(Trifluoromethoxy)phenyl)-7H-pyrrolo[2,3-d]pyrimidin-4-amine], the negative logarithm of the EC50 (pEC50) is below 5.00.
As to `FC(F)(F)Oc1ccc(Nc2ncnc3n[nH]cc23)cc1` [N-(4-(trifluoromethoxy)phenyl)-1H-pyrazolo[3,4-d]pyrimidin-4-amine], the negative logarithm of the EC50 (pEC50) is 5.89.
`Cc1nn(C)c(C)c1-c1cc(Nc2ccc(OC(F)(F)F)cc2)ncn1` [N-(4-(trifluoromethoxy)phenyl)-6-(1,3,5-trimethyl-1H-pyrazol-4-yl)pyrimidin-4-amine] gave a pEC50 of 6.82.
With `Fc1ccc(Nc2cc(-c3ccncc3)ncn2)cc1` [N-(4-fluorophenyl)-6-(pyridin-4-yl)pyrimidin-4-amine] the figure was below 5.00; with `COc1ccc(Nc2cc(-c3ccncc3)ncn2)cc1` [N-(4-methoxyphenyl)-6-(pyridin-4-yl)pyrimidin-4-amine], below 5.00; with `CCNC(=O)c1cc2c(Nc3ccc(OC(F)(F)F)cc3)ncnc2s1` [N-ethyl-4-(4-(trifluoromethoxy)phenylamino)thieno[2,3-d]pyrimidine-6-carboxamide], 6.04.
In turn, `CNC(=O)c1cccc(-c2cc(Nc3ccc(OC(F)(F)F)cc3)ncn2)c1` [N-methyl-3-(6-(4-(trifluoromethoxy)phenylamino)pyrimidin-4-yl)benzamide] showed a pEC50 of 6.47.
`CN(c1ccc(OC(F)(F)F)cc1)c1cc(-c2ccncc2)ncn1` [N-methyl-6-(pyridin-4-yl)-N-(4-(trifluoromethoxy)phenyl)pyrimidin-4-amine]: the pEC50 is below 5.00.
The compound `COC(=O)c1cc2c(Nc3ccc(OC(F)(F)F)cc3)ncnc2s1` [methyl 4-(4-(trifluoromethoxy)phenylamino)thieno[2,3-d]pyrimidine-6-carboxylateMethyl 4-(4-(Trifluoromethoxy)-phenylamino)thieno[2,3-d]pyrimidine-6-carboxylate] had a pEC50 of 5.25.
Take `O=C(c1cccc(-c2cc(Nc3ccc(OC(F)(F)F)cc3)ncn2)c1)N1CCOCC1` [morpholino(3-(6-(4-(trifluoromethoxy)phenylamino)pyrimidin-4-yl)phenyl)methanone]: the pEC50 was 6.62.

As a reminder, the pEC50 is −log10 of the EC50, conventionally taken in molar units.
